The conditions of data set [1]: after 8 hours incubation at 4° C., FIG. 22.

Take `CN1CCCC1c1cccnc1` (stereo not shown) [nicotine]: the “trapping of the molecule by PEEK” value is given as “not trapped by the material”. The “amount of nicotine remaining in a PEEK plate” value (8 h) is recorded as “about 100%”. In addition, the “amount of nicotine remaining in a PDMS plate” value in data set [1] is on record as “about 35%”.
As for `CN(CCCC(=O)c1cccnc1)N=O` [NNK, 4-(methylnitrosamino)-1-(3-pyridyl)-1-butanone], the “trapping of the molecule by PEEK” value is “not trapped by the material”.

Values taken from patent US12012584B2 (priority 2017, dated 2024).
